Assay results: patent US20130203830A1, “Compounds for Prevention of Cell Injury” (SULFATEQ B.V., priority 2010, published 2013)
“Also recorded” adds a separate entry of the source.

Key:
[1] = tested on: SMAC cells; experiment: Caspase 3/7 assay in hypothermic SMAC cells; type: cell-based, rat; details: serotonin 5 nmol/L
[2] = tested on: Cystathionine-β-synthase (CBS); experiment: CBS expression in SMAC cells (western blot); type: cell-based, rat; details: serotonin 1.3 μM
Method: To investigate the potential of serotonin in upregulating CBS expression in cells, SMAC cells were cultured in a 6 well plate one day before serotonin treatment. After reaching confluence, cells were incubated with 1.3 μM serotonin in SMAC cell complete medium. Control wells only contained the medium. At every time point (5, 10, min), cells were washed with PBS, lysed using RIPA buffer and western blotted to study the change in CBS expression level.
To investigate the role of Cystathione beta-synthase activity in the protective effect of serotonin the expression of CBS was reduced by applying a predesigned siRNA (sc-60336, Santa Cruz, USA) and compared to a silencer negative control (Ambion, AM4644, Huntingdon, UK). DDT-1 and SMAC cells at 60-80% confluence were seeded in 96 or 6 well plates in antibiotic-free normal growth medium supplemented with FCS. […] The protein concentration was measured by Bradford assay in all the samples. […] Proteins were transferred to a nitrocellulose membrane and detected by West Pico Chemiluminescent Substrate (supersignal), photographed and analyzed with genetool software (version 3.08, SynGene, England). […]

[3] = tested on: SMAC cells; experiment: H2S content of SMAC cell homogenates (methylene blue method); type: cell-based, rat; details: hypothermic SMAC cells 24 h, 3° C., pretreatment 15 min, 1.3 μM
Method: Methylene blue method for H2S detection was applied to quantitatively measure the H2S production. Cells were washed with PBS, scraped and centrifuged for 60 sec at 1000 rpm. After removal of the supernatant, zinc acetate 1% in water (200 μl) was added to the cell sediments and the cells were disrupted by small glass beads and vortexed for 20 seconds. Diamine-ferric solution was prepared by mixing 100 μl of a 400 mg N,N-dimethyl-p-phenylenediamine dihydrochloride dissolved in 10 ml 6M HCl and 100 μl of 600 mg ferric chloride in 10 ml 6M HCl. Two hundred μl of this mixture was added to the cell suspension and after an incubation time of 30 min at 37° C. and centrifugation, the amount of methylene blue formed in the supernatant was measured at a wavelength of 670 nm. To measure H2S content of supernatant, the same procedure was repeated for the cell free medium of cells incubated at both 37° C. and 3° C. Blanks were made following the same procedure without cells or using fresh medium. The concentration of H2S was calculated by extrapolation using a standard curve obtained from different concentrations of Methylene blue and spectrophotometric measurement at a wavelength of 670 nm. The amount of H2S present was calculated on the basis that every mole of methylene blue formed in this reaction contains 32 g (1 mole) of captured sulfur.

[4] = tested on: CBS enzyme isolated from DDT-1 cells; experiment: Activity of isolated CBS enzyme (H2S production); type: biochemical, hamster; details: both at 37° C. and 3° C.
Method: To examine the potential of serotonin to act as a cofactor or allosteric activator of CBS, the enzyme was isolated from DDT-1 cells. In brief, DDT-1 cells were lyzed by a non-denaturing buffer. CBS antibody (1 μg/ml) was diluted in coating solution and 100 μl of it was added to each well of a microplate. The plates were left at 4° C. over night. The wells were washed with PBS three times for 2 min and 10 μg/ml of the protein was added to each well and the microplate was left at 4° C. for another 24 hr and later washed three times with PBS. The substrates cysteine and homocysteine at the concentration of 10 μmol each were mixed and 100 μl was added to each well in the absence or presence of PLP (pyridoxal-5-phosphate) or serotonin (30 nmol) in PBS.

[5] = tested on: SMAC cells; experiment: Survival of SMAC cells after hypothermia (MTS assay / cell counting); type: cell-based, rat; details: SMAC cells, 24 h at 3° C., substance added 15 min before hypothermia
Method: Cell lines used included NRK (normal rat kidney cells), DDT-1 (hamster ductus deferens muscle cells) and A7R5 (rat vascular smooth muscle cells) cultured in DMEM (Gibco, 41966, UK) and SMAC (rat smooth muscle aortic cells) and THMC (transformed human mesangial cell) cultured in DMEM/F12 (Gibco, E12-719F). All media were supplied with 10% (vol/vol) fetal calf serum and 1% penicillin-streptomycin and cultured at 37° C. in 5% CO2 in 25 cm^2 or 75 cm^2 flasks. For hypothermia experiments, cells were plated in 6 or 96 wells plates and grown to confluence. Thereupon, cells were placed at 3° C. for up to 24 hours. Cell survival was measured by counting of trypan blue stained cells or MTS assay, which measures the number of viable cells. For the latter, 20 μl of MTS solution was added to each well and cells were subsequently placed in the incubator at 37° C. in 5% CO2 for 3 hr before assessing the cell survival by measuring absorption using a microplate reader at 490 nm.
MTS assay was performed to investigate cell survival after blocking serotonin transporter and hypothermic treatment.

NCCc1c[nH]c2ccc(O)cc12 [serotonin, Serotonin]
apoptosis (caspase 3/7) in hypothermic SMAC cells [1]: completely and dose dependently attenuated | induction of CBS expression ([2]; SMAC cells, 37° C., 15 min): 4 fold | CBS expression in 37° C. SMAC cells [2]: upregulates CBS expression | H2S content [3]: 1.4±0.2 μmoles per 10̂6 cells | increase of H2S content ([3]; vs untreated): 8 fold | activity of isolated CBS [4]: increase the activity | protection against hypothermic cell death / reduction in number of cells [5]: concentration-dependently prevented; also recorded: Protection of hypothermic cell death
